Assay results as given in PubChem BioAssay AID1963840 (Molecular Pharmacology Branch, DTP, NCI, 2024).
pIC50: −log10 of the molar value.

System: 695427-040-R-J1-PDC complex spheroid viability
Experiment: Anticancer human tumor 695427-040-R-J1-PDC patient-derived colon adenocarcinoma cell line growth inhibition [POLQ]
Conditions: for pIC50: curve of first compound; for viability, T/C: stronger effect = lower value
Summary of the method: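 Growth inhibition in 3D: complex spheroids (tumor PDC, HUVEC, MSC) treated with POLQ inhibitor combinations; where Cmax unknown, highest tested concentration 10 microM, except SN-38 at 1 microM.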

[1] = second compound 0.0316 µM, first compound 0.0316 µM
[2] = second compound 0.0316 µM, first compound 0.1 µM
[3] = second compound 0.0316 µM, first compound 0.316 µM
[4] = second compound 0.0316 µM, first compound 1 µM
[5] = second compound 0.0316 µM, first compound 3.16 µM
[6] = second compound 0.0316 µM, first compound 10 µM
[7] = second compound 0.1 µM, first compound 0.0316 µM
[8] = second compound 0.1 µM, first compound 0.1 µM
[9] = second compound 0.1 µM, first compound 0.316 µM
[10] = second compound 0.1 µM, first compound 1 µM
[11] = second compound 0.1 µM, first compound 3.16 µM
[12] = second compound 0.1 µM, first compound 10 µM
[13] = second compound 0.316 µM, first compound 0.0316 µM
[14] = second compound 0.316 µM, first compound 0.1 µM
[15] = second compound 0.316 µM, first compound 0.316 µM
[16] = second compound 0.316 µM, first compound 1 µM
[17] = second compound 0.316 µM, first compound 3.16 µM
[18] = second compound 0.316 µM, first compound 10 µM
[19] = second compound 1 µM, first compound 0.0316 µM
[20] = second compound 1 µM, first compound 0.1 µM
[21] = second compound 1 µM, first compound 0.316 µM
[22] = second compound 1 µM, first compound 1 µM
[23] = second compound 1 µM, first compound 3.16 µM
[24] = second compound 1 µM, first compound 10 µM
[25] = second compound 3.16 µM, first compound 0.0316 µM
[26] = second compound 3.16 µM, first compound 0.1 µM
[27] = second compound 3.16 µM, first compound 0.316 µM
[28] = second compound 3.16 µM, first compound 1 µM
[29] = second compound 3.16 µM, first compound 3.16 µM
[30] = second compound 3.16 µM, first compound 10 µM
[31] = second compound 10 µM, first compound 0.0316 µM
[32] = second compound 10 µM, first compound 0.1 µM
[33] = second compound 10 µM, first compound 0.316 µM
[34] = second compound 10 µM, first compound 1 µM
[35] = second compound 10 µM, first compound 3.16 µM
[36] = second compound 10 µM, first compound 10 µM
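Further: spheroids exposed to compounds for seven days.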
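Wherever viability, T/C is given: 100% = DMSO vehicle control viability.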

C#Cc1c(F)ccc2cc(O)cc(-c3ncc4c(N5CC6CCC(C5)N6)nc(OCC56CCCN5CC(F)C6)nc4c3F)c12 (stereo unspecified) + COC1C(OC(N)=O)C(O)C(Oc2ccc3c(O)c(NC(=O)c4ccc(O)c(CC=C(C)C)c4)c(=O)oc3c2C)OC1(C)C
pIC50 (second compound 0.0316 µM): < 5.00 | pIC50 (second compound 0.1 µM): < 5.00 | pIC50 (second compound 0.316 µM): < 5.00 | pIC50 (second compound 1 µM): < 5.00 | pIC50 (second compound 3.16 µM): < 5.00 | pIC50 (second compound 10 µM): < 5.00 | viability, T/C [1]: 113% | viability, T/C [2]: 99.8% | viability, T/C [3]: 108% | viability, T/C [4]: 107% | viability, T/C [5]: 97.3% | viability, T/C [6]: 96.5% | viability, T/C [7]: 110% | viability, T/C [8]: 97.6% | viability, T/C [9]: 105% | viability, T/C [10]: 99.9% | viability, T/C [11]: 102% | viability, T/C [12]: 84.7% | viability, T/C [13]: 107% | viability, T/C [14]: 101% | viability, T/C [15]: 98.2% | viability, T/C [16]: 99.2% | viability, T/C [17]: 95% | viability, T/C [18]: 90% | viability, T/C [19]: 101% | viability, T/C [20]: 97.9% | viability, T/C [21]: 108% | viability, T/C [22]: 97.1% | viability, T/C [23]: 97.1% | viability, T/C [24]: 91% | viability, T/C [25]: 105% | viability, T/C [26]: 109% | viability, T/C [27]: 98.7% | viability, T/C [28]: 94.8% | viability, T/C [29]: 104% | viability, T/C [30]: 90.7% | viability, T/C [31]: 107% | viability, T/C [32]: 104% | viability, T/C [33]: 104% | viability, T/C [34]: 95.6% | viability, T/C [35]: 101% | viability, T/C [36]: 80.4%

C=CC(=O)N1CCN(c2nc(=O)n(-c3c(C)ccnc3C(C)C)c3nc(-c4c(O)cccc4F)c(F)cc23)C(C)C1 (stereo unspecified) + COC1C(OC(N)=O)C(O)C(Oc2ccc3c(O)c(NC(=O)c4ccc(O)c(CC=C(C)C)c4)c(=O)oc3c2C)OC1(C)C
pIC50 (second compound 0.0316 µM): < 5.00 | pIC50 (second compound 0.1 µM): < 5.00 | pIC50 (second compound 0.316 µM): < 5.00 | pIC50 (second compound 1 µM): < 5.00 | pIC50 (second compound 3.16 µM): < 5.00 | pIC50 (second compound 10 µM): < 5.00 | viability, T/C [1]: 99.8% | viability, T/C [2]: 94.9% | viability, T/C [3]: 97.9% | viability, T/C [4]: 106% | viability, T/C [5]: 113% | viability, T/C [6]: 105% | viability, T/C [7]: 104% | viability, T/C [8]: 102% | viability, T/C [9]: 106% | viability, T/C [10]: 111% | viability, T/C [11]: 118% | viability, T/C [12]: 122% | viability, T/C [13]: 106% | viability, T/C [14]: 101% | viability, T/C [15]: 102% | viability, T/C [16]: 116% | viability, T/C [17]: 112% | viability, T/C [18]: 107% | viability, T/C [19]: 109% | viability, T/C [20]: 102% | viability, T/C [21]: 105% | viability, T/C [22]: 110% | viability, T/C [23]: 119% | viability, T/C [24]: 117% | viability, T/C [25]: 103% | viability, T/C [26]: 109% | viability, T/C [27]: 100% | viability, T/C [28]: 107% | viability, T/C [29]: 125% | viability, T/C [30]: 107% | viability, T/C [31]: 111% | viability, T/C [32]: 92.7% | viability, T/C [33]: 104% | viability, T/C [34]: 109% | viability, T/C [35]: 113% | viability, T/C [36]: 114%

CC(C)n1c(=O)n(C)c2cnc3cc(F)c(-c4ccc(OCCCN5CCCCC5)nc4)cc3c21 + COC1C(OC(N)=O)C(O)C(Oc2ccc3c(O)c(NC(=O)c4ccc(O)c(CC=C(C)C)c4)c(=O)oc3c2C)OC1(C)C
pIC50 (second compound 0.0316 µM): < 5.00 | pIC50 (second compound 0.1 µM): < 5.00 | pIC50 (second compound 0.316 µM): < 5.00 | pIC50 (second compound 1 µM): < 5.00 | pIC50 (second compound 3.16 µM): < 5.00 | pIC50 (second compound 10 µM): < 5.00 | viability, T/C [1]: 99.3% | viability, T/C [2]: 98.7% | viability, T/C [3]: 109% | viability, T/C [4]: 113% | viability, T/C [5]: 110% | viability, T/C [6]: 82.6% | viability, T/C [7]: 114% | viability, T/C [8]: 101% | viability, T/C [9]: 112% | viability, T/C [10]: 118% | viability, T/C [11]: 101% | viability, T/C [12]: 80.1% | viability, T/C [13]: 111% | viability, T/C [14]: 103% | viability, T/C [15]: 110% | viability, T/C [16]: 101% | viability, T/C [17]: 114% | viability, T/C [18]: 74.4% | viability, T/C [19]: 110% | viability, T/C [20]: 104% | viability, T/C [21]: 108% | viability, T/C [22]: 112% | viability, T/C [23]: 105% | viability, T/C [24]: 77.2% | viability, T/C [25]: 106% | viability, T/C [26]: 102% | viability, T/C [27]: 103% | viability, T/C [28]: 109% | viability, T/C [29]: 102% | viability, T/C [30]: 79% | viability, T/C [31]: 106% | viability, T/C [32]: 99.5% | viability, T/C [33]: 110% | viability, T/C [34]: 113% | viability, T/C [35]: 114% | viability, T/C [36]: 77.6%
